# According to US10988478B1, “Pyrazolo[1,5a]pyrimidine derivatives as IRAK4 modulators” (Genentech, Inc., priority 2015, dated 2021):
# Biological target: human IRAK4 (Homo sapiens (Human), UniProt Q9NWZ3)
# Experiment: IRAK4 kinase inhibition, Transcreener fluorescence polarization ADP assay
# Format: biochemical
# Settings: recombinant full-length His6-IRAK4; 125 uM ATP; 90 min; Ki computed using ATP Km 642 uM
# Procedure: Compounds were assayed for inhibition of human IRAK4 and IRAK1 catalytic activity using recombinant enzyme produced from insect cells. Full-length IRAK4 protein, carrying an N-terminal His6-Tag, was obtained from Life Technologies (Carlsbad, Calif., USA). The IRAK1 construct was produced internally and was comprised of IRAK1 residues Arg194 to Ser712, preceded by an NH2-terminal His6 tag and the coding sequence for glutathione-S-transferase.
# human IRAK4, sequence (Q9NWZ3 whole entry): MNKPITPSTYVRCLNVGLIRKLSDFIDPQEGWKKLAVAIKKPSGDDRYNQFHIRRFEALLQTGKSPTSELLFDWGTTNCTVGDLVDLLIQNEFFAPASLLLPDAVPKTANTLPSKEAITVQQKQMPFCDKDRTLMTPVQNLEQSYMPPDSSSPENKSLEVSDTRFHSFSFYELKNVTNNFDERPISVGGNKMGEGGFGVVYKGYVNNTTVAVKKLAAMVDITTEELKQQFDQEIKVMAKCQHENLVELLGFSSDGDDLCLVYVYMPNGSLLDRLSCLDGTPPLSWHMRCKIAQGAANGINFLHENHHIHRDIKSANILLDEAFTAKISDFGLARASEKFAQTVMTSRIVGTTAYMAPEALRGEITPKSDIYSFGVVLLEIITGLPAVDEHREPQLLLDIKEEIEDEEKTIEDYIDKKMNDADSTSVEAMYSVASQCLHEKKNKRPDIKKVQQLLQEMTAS
row,SMILES,Ki
1,"C[C@@]1(CO)Cc2cc(NC(=O)c3cnn4cccnc34)c(N3CCC(C#N)CC3)cc2O1 [Example 336, (S)-N-(6-(4-cyanopiperidin-1-yl)-2-(hydroxymethyl)-2-methyl-2,3-dihydrobenzofuran-5-yl)pyrazolo[1,5-a]pyrimidine-3-carboxamide]",3 nM
2,"Cn1cc(COc2cc3c(cc2NC(=O)c2cnn4cccnc24)CC(C)(C)O3)cn1 [Example 300, N-(2,2-Dimethyl-6-((1-methyl-1H-pyrazol-4-yl)methoxy)-2,3-dihydrobenzofuran-5-yl)pyrazolo[1,5-α]pyrimidine-3-carboxamide]",7 nM
3,"O=C(Nc1cc2c(cc1N1CCOCC1)OC1(C2)CN(CC(F)(F)F)C1)c1cnn2cccnc12 [Example 148, N-[6-Morpholino-1′-(2,2,2-trifluoroethyl)spiro[3H-benzofuran-2,3′-azetidine]-5-yl]pyrazolo[1,5-a]pyrimidine-3-carboxamide]",6.1 nM
4,"CC1(C)Cc2cc(NC(=O)c3cnn4cccnc34)c(N3CCN(Cc4cnoc4)CC3)cc2O1 [Example 504, N-(6-(4-(isoxazol-4-ylmethyl)piperazin-1-yl)-2,2-dimethyl-2,3-dihydrobenzofuran-5-yl)pyrazolo[1,5-a]pyrimidine-3-carboxamide]",3.1 nM
5,"CC1(C)CN(c2cc3c(cc2NC(=O)c2cnn4cccnc24)C[C@](C)(CO)O3)CCO1 [Example 36, (R)—N-(6-(2,2-dimethylmorpholino)-2-(hydroxymethyl)-2-methyl-2,3-dihydrobenzofuran-5-yl)pyrazolo[1,5-a]pyrimidine-3-carboxamide]",150 nM
6,"CC1(C)Oc2cc(NC(=O)c3cnn4cccnc34)c(N3CCOCC3)cc2C1=O [Example 359, N-(2,2-dimethyl-5-morpholino-3-oxo-2,3-dihydrobenzofuran-6-yl)pyrazolo[1,5-a]pyrimidine-3-carboxamide]",260 nM
7,"Cn1cc(CN2CCN(c3cc4c(cc3NC(=O)c3cnn5cccnc35)CC(C)(C)O4)CC2)cn1 [Example 460, N-(2,2-dimethyl-6-(4-((1-methyl-1H-pyrazol-4-yl)methyl)piperazin-1-yl)-2,3-dihydrobenzofuran-5-yl)pyrazolo[1,5-a]pyrimidine-3-carboxamide]",5.9 nM
8,"CC1(CO)Cc2cc(NC(=O)c3cnn4cccnc34)c(N3CCN(CC(F)F)CC3)cc2O1 (stereo not drawn) [Example 19, N-[6-[4-(2,2-Difluoroethyl)piperazin-1-yl]-2-(hydroxymethyl)-2-methyl-3H-benzofuran-5-yl]pyrazolo[1,5-a]pyrimidine-3-carboxamide]",3.3 nM
9,"C[C@]1(CO)Cc2cc(NC(=O)c3cnn4cccnc34)c(N3CCN(CCO)CC3)cc2O1 [Example 87, N-[(2R)-6-[4-(2-Hydroxyethyl)piperazin-1-yl]-2-(hydroxymethyl)-2-methyl-3H-benzofuran-5-yl]pyrazolo[1,5-a]pyrimidine-3-carboxamide]",19 nM
10,"CNC(=O)[C@H]1[C@@H]2CN(c3cc4c(cc3NC(=O)c3cnn5cccnc35)CC(C)(C)O4)C[C@@H]21 [Example 182, N-[2,2-dimethyl-6-[(1S,5R)-6-(methylcarbamoyl)-3-azabicyclo[3.1.0]hexan-3-yl]-3H-benzofuran-5-yl]pyrazolo[1,5-a]pyrimidine-3-carboxamide]",56 nM
11,"Cc1nccc(C2CCN(c3cc4c(cc3NC(=O)c3cnn5cccnc35)CC(C)(C)O4)C2)n1 (stereo not drawn) [Example 229, N-(2,2-Dimethyl-6-(3-(2-methylpyrimidin-4-yl)pyrrolidin-1-yl)-2,3-dihydrobenzofuran-5-yl)pyrazolo[1,5-a]pyrimidine-3-carboxamide]",260 nM
12,"CC1(C)Cc2cc(NC(=O)c3cnn4cccnc34)c(N3CCC4(CC3)CC(O)C4)cc2O1 [Example 110, N-(6-(2-hydroxy-7-azaspiro[3.5]nonan-7-yl)-2,2-dimethyl-2,3-dihydrobenzofuran-5-yl)pyrazolo[1,5-a]pyrimidine-3-carboxamide]",2.5 nM
